Molecular target: T1, hTLR9 (Homo sapiens, UniProt Q9NR96)
T1 construct: expressed in transfected cells; host or cells: HEK-Blue-hTLR9 cells (HEK293)
T1 sequence (Q9NR96 26-1032): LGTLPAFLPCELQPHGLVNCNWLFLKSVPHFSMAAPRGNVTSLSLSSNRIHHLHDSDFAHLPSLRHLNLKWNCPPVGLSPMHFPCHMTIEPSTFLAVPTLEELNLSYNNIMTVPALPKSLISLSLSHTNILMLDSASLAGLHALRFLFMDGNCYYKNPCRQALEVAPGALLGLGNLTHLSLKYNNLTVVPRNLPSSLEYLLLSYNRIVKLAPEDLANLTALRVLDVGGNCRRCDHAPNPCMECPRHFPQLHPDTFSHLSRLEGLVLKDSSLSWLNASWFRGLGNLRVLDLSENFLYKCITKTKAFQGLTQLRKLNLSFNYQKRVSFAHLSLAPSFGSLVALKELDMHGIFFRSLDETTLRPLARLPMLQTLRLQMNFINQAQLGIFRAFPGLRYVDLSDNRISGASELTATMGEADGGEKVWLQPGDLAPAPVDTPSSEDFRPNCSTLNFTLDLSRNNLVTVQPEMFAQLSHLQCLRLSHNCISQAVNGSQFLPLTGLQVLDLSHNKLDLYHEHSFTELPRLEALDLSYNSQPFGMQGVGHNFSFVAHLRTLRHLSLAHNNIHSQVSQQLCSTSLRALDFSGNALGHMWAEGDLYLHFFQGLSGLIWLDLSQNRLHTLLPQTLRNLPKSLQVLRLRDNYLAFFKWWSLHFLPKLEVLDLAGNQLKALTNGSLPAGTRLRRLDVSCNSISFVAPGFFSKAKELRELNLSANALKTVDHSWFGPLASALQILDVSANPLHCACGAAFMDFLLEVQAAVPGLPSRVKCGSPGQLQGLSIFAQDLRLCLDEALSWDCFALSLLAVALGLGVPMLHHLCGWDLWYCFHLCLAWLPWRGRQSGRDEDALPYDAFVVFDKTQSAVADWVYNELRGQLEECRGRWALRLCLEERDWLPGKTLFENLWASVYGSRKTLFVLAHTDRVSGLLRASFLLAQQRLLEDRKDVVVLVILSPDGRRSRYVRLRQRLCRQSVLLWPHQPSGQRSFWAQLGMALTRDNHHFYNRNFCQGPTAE
Test: hTLR9 antagonism (SEAP inhibition assay) in HEK-Blue-hTLR9 (HEK293) cells, ODN-2006 stimulated
Assay type: cell-based
Conditions: HEK-Blue hTLR9, 1 μM; SEAP, HEK-Blue-hTLR9 cells; read-out: hTLR9 inhibitory activity (% at 1 μM)
Procedure: hTLR9 Antagonism (SEAP Inhibition Assay) in HEK293 Cell Lines
The SEAP reporter gene in HEK-Blue™-hTLR9 cells is placed under the control of the IFN-b minimal promoter fused to five NF-kB and AP-1 binding sites. The stimulation with a TLR9 ligand (ODN-2006) activates NF-kB and AP-1 which induces the production of SEAP. Levels of SEAP are determined with QUANTI-Blue™ detection medium that turns purple/blue in the presence of alkaline phosphatase. Decrease in the levels of SEAP production as indicated by reduction in absorbance at 650 nm is directly co-related with the TLR9 inhibitory activity of the antagonist (NCE).
HEK-Blue™-hTLR9 cells were maintained in DMEM with 10% FBS, 1% Penicillin/Streptomycin/Amphotericin (complete growth medium) and 0.2% Normocin. For the assay, cells were dissociated by washing in 1×PBS and re-suspended in complete DMEM. Cells were seeded at a density of 20000 cells per well; (40 μl per well) in a 384 well assay plate.
5 μl of 10× antagonist (NCE) was added to the cells in triplicates for each concentration. The plate was incubated for half an hour at 37° C. with 5% CO2. 5 μl of agonist (ODN-2006) was added and the plate was incubated overnight for 18 hours at 37° C. with 5% CO2. 5 μl of supernatant was transferred to a 384 well reading plate and to this 45 μl of Quanti-Blue™ detection reagent was added. The plate was then incubated for an hour at 37° C. SEAP activity in the supernatant was indicated by change in the pink color of Quanti-Blue™ detection reagent to purple/blue and the absorbance was read at 650 nm in the end point mode.

Row | SMILES | inhibition at 1 µM [%]
1 | CC(C)N1CCN(c2ccc(-c3nccc4[nH]c(CN5CCOCC5)cc34)cc2)CC1 [Example A1, 4-[[4-[4-(4-isopropylpiperazin-1-yl)phenyl]-1H-pyrrolo[3,2-c]pyridin-2-yl]methyl]morpholine] | 100
2 | CN1CCN(c2ccc(-c3nccc4[nH]c(CN5CCOCC5)cc34)cc2)CC1 [Example A2, 4-[[4-[4-(4-methylpiperazin-1-yl)phenyl]-1H-pyrrolo[3,2-c]pyridin-2-yl]methyl] morpholine] | 100
3 | CCN1CCN(c2ccc(-c3nccc4[nH]c(CN5CCOCC5)cc34)cc2)CC1 [Example A3, 4-[[4-[4-(4-ethylpiperazin-1-yl)phenyl]-1H-pyrrolo[3,2-c]pyridin-2-yl]methyl] morpholine] | 100
4 | Cc1cc2[nH]c(CN3CCOCC3)cc2c(-c2ccc(N3CCN(C(C)C)CC3)cc2)n1 [Example A4, 4-[[4-[4-[4-isopropylpiperazin-1-yl)phenyl]-6-methyl-1H-pyrrolo[3,2-c]pyridin-2-yl]methyl] morpholine] | 100
5 | CCN1CCN(c2ccc(-c3nc(C)cc4[nH]c(CN5CCOCC5)cc34)cc2)CC1 [Example A5, 4-[[4-[4-(4-ethylpiperazin-1-yl)phenyl]-6-methyl-1H-pyrrolo[3,2-c]pyridin-2-yl]methyl] morpholine] | 100
6 | CC(C)N1CCN(c2ccc(-c3nccc4c3cc(CN3CCOCC3)n4C)cc2)CC1 [Example A8, 4-[[4-[4-(4-isopropylpiperazin-1-yl)phenyl]-1-methyl-pyrrolo[3,2-c]pyridin-2-yl]methyl] morpholine] | 100
7 | CN1CCN(c2ccc(-c3nccc4c3cc(CN3CCOCC3)n4C)cc2)CC1 [Example A9, 4-[[1-methyl-4-[4-(4-methylpiperazin-1-yl)phenyl]pyrrolo[3,2-c]pyridin-2-yl]methyl] morpholine] | 100
8 | CC(C)N1CCN(c2ccc(-c3nccc4[nH]c(CN5CCC(O)CC5)cc34)cc2)CC1 [Example A12, 1-[[4-[4-(4-isopropylpiperazin-1-yl)phenyl]-1H-pyrrolo[3,2-c]pyridin-2-yl]methyl] piperidin-4-ol] | 100
9 | CC(C)N1CCN(c2ccc(-c3nccc4[nH]c(CN5CCC6(CC5)CC(O)C6)cc34)cc2)CC1 [Example A13, 7-[[4-[4-(4-isopropylpiperazin-1-yl)phenyl]-1H-pyrrolo[3,2-c]pyridin-2-yl]methyl]-7-azaspiro[3.5] nonan-2-ol] | 100
10 | CC(C)N1CCN(c2ccc(-c3nccc4[nH]c(CN5CC(F)C5)cc34)cc2)CC1 [Example A16, 2-[(3-fluoroazetidin-1-yl)methyl]-4-[4-(4-isopropylpiperazin-1-yl)phenyl]-1H-pyrrolo[3,2-c]pyridine] | 100
11 | CC(C)N1CCN(c2ccc(-c3nccc4[nH]c(CN5CCCCC5)cc34)cc2)CC1 [Example A17, 4-[4-(4-isopropylpiperazin-1-yl)phenyl]-2-(1-piperidylmethyl)-1H-pyrrolo[3,2-c]pyridine] | 100
12 | CC(C)N1CCN(c2ccc(-c3nccc4[nH]c(CN5CCC(F)CC5)cc34)cc2)CC1 [Example A24, 2-[(4-fluoro-1-piperidyl)methyl]-4-[4-(4-isopropylpiperazin-yl)phenyl]-1H-pyrrolo[3,2-c] pyridine] | 95.1
13 | CN1CCN(c2ccc(-c3nccc4[nH]c(CN5CCC(F)CC5)cc34)cc2)CC1 [Example A25, 2-[(4-fluoro-1-piperidyl)methyl]-4-[4-(4-methylpiperazin-1-yl)phenyl] - 1H-pyrrolo[3,2-c]pyridine] | 95.2
14 | Cc1cc2[nH]c(Cn3cccn3)cc2c(-c2ccc(N3CCN(C(C)C)CC3)cc2)n1 [Example A28, 4-[4-(4-isopropylpiperazin-1-yl)phenyl]-6-methyl-2-(pyrazol-1-ylmethyl)-1H-pyrrolo[3,2-c]pyridine] | 91
15 | Cc1cc2[nH]c(CN3CCC4(CC3)CC(O)C4)cc2c(-c2ccc(N3CCN(C(C)C)CC3)cc2)n1 [Example A29, 7-[[4-[4-(4-isopropylpiperazin-1-yl)phenyl]-6-methyl-1H-pyrrolo[3,2-c]pyridin-2-yl]methyl]-7-azaspiro[3.5] nonan-2-ol] | 100
16 | Cc1cc2[nH]c(CN3CCC4(CC3)CC(C)C4)cc2c(-c2ccc(N3CCN(C(C)C)CC3)cc2)n1 [Example A30, 4-[4-(4-isopropylpiperazin-1-yl)phenyl]-6-methyl-2-[(2-methyl-7-azaspiro[3.5]nonan-7-yl)methyl]-1H-pyrrolo[3,2-c]pyridine] | 96.7

Further lines, results first:

Row | inhibition at 1 µM [%] | SMILES
17 | 90.4 | CC(C)N1CCN(c2ccc(-c3nc(C4CC4)cc4[nH]c(CN5CCOCC5)cc34)cc2)CC1 [Example A33, 4-[[6-cyclopropyl-4-[4-(4-isopropylpiperazin-1-yl)phenyl]-1H-pyrrolo[3,2-c]pyridin-2-yl]methyl] morpholine]
18 | 82 | CN1CCN(c2ccc(-c3nc(C4CC4)cc4[nH]c(CN5CCOCC5)cc34)cc2)CC1 [Example A34, 4-[[6-cyclopropyl-4-[4-(4-methylpiperazin-1-yl)phenyl]-1H-pyrrolo[3,2-c]pyridin-2-yl]methyl] morpholine]
19 | 96.3 | Cc1cc2c(cc(CN3CCOCC3)n2C)c(-c2ccc(N3CCN(C(C)C)CC3)cc2)n1 [Example A35, 4-[[4-[4-(4-isopropylpiperazin-1-yl]phenyl]-1,6-dimethyl-pyrrolo[3,2-c]pyridin-2-yl]methyl] morpholine]
20 | 96.7 | Cc1nc(-c2ccc(N3CCN(C(C)C)CC3)cc2)c2cc(CN3CCOCC3)[nH]c2c1C [Example A36, 4-[[4-[4-(4-isopropylpiperazin-1-yl)phenyl]-6,7-dimethyl-1H-pyrrolo[3,2-c]pyridin-2-yl]methyl] morpholine]
21 | 100 | Cc1nc(-c2ccc(N3CCN(C)CC3)cc2)c2cc(CN3CCOCC3)[nH]c2c1C [Example A37, 4-[[6,7-dimethyl-4-[4-(4-methylpiperazin-1-yl)phenyl]-1H-pyrrolo[3,2-c]pyridin-2-yl]methyl] morpholine]
22 | 98.5 | CCN1CCN(c2ccc(-c3nc(C)c(C)c4[nH]c(CN5CCOCC5)cc34)cc2)CC1 [Example A38, 4-[[4-[4-(4-ethylpiperazin-1-yl)phenyl]-6,7-dimethyl-1H-pyrrolo[3,2-c]pyridin-2-yl]methyl] morpholine]
23 | 74.3 | Cc1nc(-c2ccc(N3CCN(C(C)C)CC3)cc2)c2cc(CN3CCCCC3)[nH]c2c1C [Example A39, 4-[4-(4-isopropylpiperazin-1-yl)phenyl]-6,7-dimethyl-2-(1-piperidylmethyl)-1H-pyrrolo[3,2-c]pyridine]
24 | 80 | Cc1nc(-c2ccc(N3CCN(C(C)C)CC3)cc2)c2cc(CN3CCCC3)[nH]c2c1C [Example A40, 4-[4-(4-isopropylpiperazin-1-yl)phenyl]-6,7-dimethyl 2-(pyrrolidin-1-ylmethyl)-1H-pyrrolo[3,2-c)pyridine]
25 | 96 | c1cc2[nH]c(CN3CCOCC3)cc2c(-c2ccc(N3CCNCC3)cc2)n1 [Example A42, 4-[[4-(4-(piperazin-1-yl)phenyl)-1H-pyrrolo[3,2-c]pyridin-2-yl]methyl] morpholine]
26 | 91 | c1cc2[nH]c(CN3CCOCC3)cc2c(-c2ccc(OC3CCNCC3)cc2)n1 [Example A49, 4-[[4-[4-(4-piperidyloxy)phenyl]-1H-pyrrolo[3,2-c]pyridin-2-yl]methyl]morpholine]

From patent publication US9643967B2, “Pyrrolo[3,2-c]pyridine derivatives as TLR inhibitors” (TAKEDA PHARMACEUTICAL COMPANY LIMITED, priority 2013, dated 2017)
